Data as given in PubChem BioAssay (NCI).
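Here, GI50 denotes the concentration required for 50% inhibition of growth. TGI is the concentration that stops growth completely.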

What was measured:
Assay in all cases: inhibition of tumour cell growth, NCI panel, 384-well format
[1] = system: SN12C renal
[2] = system: A498 renal
[3] = system: NCI-H23 lung
[4] = system: PC-3 prostate
[5] = system: MDA-MB-231 breast
[6] = system: A549 NSCLC
[7] = system: CCRF-CEM leukemia
[8] = system: UACC-62 melanoma
[9] = system: RPMI-8226 leukemia
[10] = system: HOP-92 NSCLC
[11] = system: DU-145 prostate
[12] = system: UO-31 renal
[13] = system: MOLT-4 leukemia

CN1CCN(c2ccc(Nc3cc(-c4cccc(-n5ccc6cc(C7CC7)cc(F)c6c5=O)c4CO)cn(C)c3=O)nc2)CC1
GI50 [1]: 1.76 µM
TGI [1]: 3.63 µM
GI50 [2]: 2.05 µM
TGI [2]: 3.96 µM
GI50 [3]: 2.73 µM
TGI [3]: 8.14 µM
GI50 [4]: 3.78 µM
TGI [4]: 12.1 µM
GI50 [5]: 1.95 µM
TGI [5]: 3.92 µM
GI50 [6]: 3.1 µM
TGI [6]: 10.5 µM
GI50 [7]: 1.78 µM
TGI [7]: 3.18 µM
GI50 [8]: 1.74 µM
TGI [8]: 3.16 µM
GI50 [9]: 2.06 µM
TGI [9]: 3.56 µM
GI50 [10]: 2.11 µM
TGI [10]: 4.78 µM
GI50 [11]: 2.97 µM
TGI [11]: 9.08 µM
GI50 [12]: 1.77 µM
TGI [12]: 3.19 µM
GI50 [13]: 1.51 µM
TGI [13]: 2.85 µM

O=C(NC[C@H](O)CN1CCc2ccccc2C1)c1cc(NC2COC2)ncn1
GI50 [1]: > 100 µM
TGI [1]: > 100 µM
GI50 [2]: > 100 µM
TGI [2]: > 100 µM
GI50 [3]: > 100 µM
TGI [3]: > 100 µM
GI50 [4]: > 100 µM
TGI [4]: > 100 µM
GI50 [5]: > 100 µM
TGI [5]: > 100 µM
GI50 [6]: > 100 µM
TGI [6]: > 100 µM
GI50 [7]: > 100 µM
TGI [7]: > 100 µM
GI50 [8]: > 100 µM
TGI [8]: > 100 µM
GI50 [9]: > 47.7 µM
TGI [9]: > 100 µM
GI50 [10]: > 100 µM
TGI [10]: > 100 µM
GI50 [11]: > 100 µM
TGI [11]: > 100 µM
GI50 [12]: > 100 µM
TGI [12]: > 100 µM
GI50 [13]: 0.0768 µM
